Assays:
HepG2 cells [1] = experiment: LC-MS/MS targeted intracellular metabolomics; assay type: cell-based, human; conditions: Suppl Fig 9; C3 (EC15 ATP), 48 h; Bezafibrate lines = Plates 1-6 in order
Experimental: Metabolite profiling of cells was performed directly in the same 96-well plate according to a standardized protocol described below. In order to prevent any interaction with the cell material, the automatic sampler was adjusted to pick up the sample from the supernatant at a specified depth avoiding the contact with the bottom of the plate.
After the initial quenching step (50 μL isopropanol 80%), additional 70 μL of isopropanol 80%, containing internal standards (methionine-D3, tryptophan-D5, arginine-13C6-15N4, Boc-Ala-Gly-Gly-Gly-OH, coenzyme Q1, coenzyme Q2, coenzyme Q4) were added to each well. The internal standards were used for quality control by visual inspection (signal intensity, peak shape, retention time); they were not used for normalization. Afterwards, plates were shaken for 5 min, 750 rpm at 20 °C, and placed for 30 s in the ultrasonic device. Then, the plates were centrifugated for 10 min, at 5485 g, 15 °C. Further, 2.5 μL of the extract were injected each for reversed-phase and hydrophilic interaction liquid chromatography followed by MS/MS detection (AB Sciex QTrap 6500+) using the positive and negative ionization mode. For reverse-phase high-performance liquid chromatography (RP-HPLC, Ascentis Express C18, 5 cm × 2.1 mm, 2.7 μm Supelco), gradient elution was performed with mobile phase A, water/methanol/0.1 M ammonium formate (1:1:0.02, w/w), and B, methyl-tert-butylether/2-propanol/methanol/0.1 M ammonium formate/formic acid (4:2:1:0.07:0.035, w/w) 5.9 min linear gradient: 0 min 100% A, 0.5 min 75% A, 5.9 min 10% A; followed by 0% A until 6.7 min; re-equilibration at 100% A until 7.7 min; flow rate 600 μL/min; column temperature 40 °C HILIC (ZIC-HILIC, 2.1 × 100 mm, 3.5 μm, Supelco) gradient elution was performed with mobile phase C, acetonitrile/water (99:1, v/v) with 0.2% (v) acetic acid, and D, 7 mM ammonium acetate with 0.2% (v) acetic acid (5.0 min linear gradient: 0 min 100% C, 5 min 10% C; followed by a linear gradient back to 100%C until 6.5 min; re-equilibration at 100% C until 7.5 min; flow rate 600 μL/min; column temperature 40 °C.). Two LC-MS systems with identical configuration were used for the analysis. Normalization to lyophilized reference samples (see below) was used to compensate for variation from between analytical batches. The efficiency of this normalization procedure was checked by principal component analysis (PCA), confirming that Pool samples from different analytical batches clustered together.
Reference samples derived from lyophilized untreated HepG2 cells (technical control samples) were measured in parallel throughout the entire analytical process. Data were normalized against the median of these lyophilized HepG2 cells reference samples, to give normalized ratios (performed for each sample per metabolite). This compensated for inter- and intra-instrumental variation. To correct for small differences in cell numbers within and between different treatment groups, data were also normalized to the within sample median, as described in detail by (Ramirez et al. [2018]). For intracellular metabolomic analysis, the median of each sample was calculated across all the 221 measured metabolites.
To generate metabolic profiles for the different treatments, heteroscedastic t test (Welch test) was applied to log-transformed normalized metabolite data to compare treated groups with their respective controls.
Principal component analysis (PCA) and hierarchical clustering (HCA) analyses were performed using R software environment (https://www.r-project.org/). PCA was conducted using the ropls package (Thévenot et al. [2015]) with log10-transformed input data and standard scaling. HCA was performed using the pvclust package (Suzuki et al. [2019]), (https://CRAN.R-project.org/package=pvclust). Input: log10(Ratio), clustering method: Ward D2, distance method: Manhattan, bootstrapping: 10000 times.

HepG2 cells [2] = experiment: Cytotoxicity (CellTox Green) in parallel with metabolomics experiments; conditions: intermediate concentration (C3; C2 for aroclor), 48 h
Experimental: Commercially available cytotoxicity (CellTox™ Green) and ATP content based (CellTiter-Glo®) assays (Promega GmbH, Walldorf, Germany) were multiplexed in a single 96-well plate following the manufacturer’s instructions. For positive controls, lysis solution 25X was added in wells containing vehicle control treated cells (0.5% DMSO). Then, 10X CellTox Green reagent was added in all wells, plates were shaken for 1 min, and incubated in the dark for 15 min at room temperature. […] Afterwards, wells were washed with PBS, 100 μL of Dulbecco’s MEM media were added to each well and subsequently 100 μL of 1X CellTiter-Glo were added. Plates were shaken for 2 min and incubated in the dark for 8 min at room temperature. Luminescence was measured in the GloMax®-Multi Detection System (Promega) and was normalized to the values of the vehicle control. Cytotoxicity and ATP cell viability analysis were carried out for range finder pre-tests and in parallel with metabolomics experiments in plates handled and treated exactly as the ones used for metabolite profiling.

O=C(O)c1cc(Oc2ccc(C(F)(F)F)cc2Cl)ccc1[N+](=O)[O-] [Acifluorfen]
2'-Deoxycytidine level vs controls (HepG2 cells [1]): 0.56
5-Hydroxytryptophan level vs controls (HepG2 cells [1]): 0.74
Carnitine level vs controls (HepG2 cells [1]): 0.98
Ceramide (d18:1.C20:0) level vs controls (HepG2 cells [1]): 0.74
Ceramide (d18:1.C24:1) level vs controls (HepG2 cells [1]): 0.72
Ceramide (d18:1.C24:2) level vs controls (HepG2 cells [1]): 0.68
Ceramide (d18:2.C24:1) level vs controls (HepG2 cells [1]): 0.64
Choline plasmalogen (C36:4) level vs controls (HepG2 cells [1]): 0.75
Choline plasmalogen (C36:5) level vs controls (HepG2 cells [1]): 0.70
Creatine level vs controls (HepG2 cells [1]): 0.87
Glycerol-3-phosphate level vs controls (HepG2 cells [1]): 0.90
Hexanoylcarnitine level vs controls (HepG2 cells [1]): 0.70
Ketoleucine level vs controls (HepG2 cells [1]): 0.80
Lysophosphatidylcholine (C14:0) level vs controls (HepG2 cells [1]): 1.75
Lysophosphatidylcholine (C16:0) level vs controls (HepG2 cells [1]): 1.17
Lysophosphatidylcholine (C16:1) level vs controls (HepG2 cells [1]): 1.22
Lysophosphatidylcholine (C20:4) level vs controls (HepG2 cells [1]): 0.94
Lysophosphatidylcholine (C24:0) level vs controls (HepG2 cells [1]): 1.25
Lysophosphatidylcholine (C24:1) level vs controls (HepG2 cells [1]): 1.00
Lysophosphatidylethanolamine (C16:0) level vs controls (HepG2 cells [1]): 1.67
Lysophosphatidylethanolamine (C18:0) level vs controls (HepG2 cells [1]): 1.69
Lysophosphatidylethanolamine (C18:1) level vs controls (HepG2 cells [1]): 1.09
N-Acetylaspartate level vs controls (HepG2 cells [1]): 1.50
Pantothenic acid level vs controls (HepG2 cells [1]): 0.68
Phosphatidylcholine (C32:0) level vs controls (HepG2 cells [1]): 0.82
Phosphatidylcholine (C34:1) level vs controls (HepG2 cells [1]): 0.81
Phosphatidylcholine (C34:3) level vs controls (HepG2 cells [1]): 1.23
Phosphatidylcholine (C36:1) level vs controls (HepG2 cells [1]): 0.76
Phosphatidylcholine (C36:2) level vs controls (HepG2 cells [1]): 0.78
Phosphatidylcholine (C36:3) level vs controls (HepG2 cells [1]): 0.82
Phosphatidylcholine (C36:4) level vs controls (HepG2 cells [1]): 0.66
Phosphatidylcholine (C36:5) level vs controls (HepG2 cells [1]): 0.71
Phosphatidylethanolamine (C36:3) level vs controls (HepG2 cells [1]): 0.86
Phosphatidylethanolamine (C38:3) level vs controls (HepG2 cells [1]): 1.05
Phosphatidylethanolamine (C38:5) level vs controls (HepG2 cells [1]): 0.82
Phosphatidylethanolamine (C38:6) level vs controls (HepG2 cells [1]): 0.91
Phosphatidylethanolamine (C40:7) level vs controls (HepG2 cells [1]): 0.68
Phosphocholine level vs controls (HepG2 cells [1]): 0.79
Propionylcarnitine level vs controls (HepG2 cells [1]): 0.79
S-Adenosylhomocysteine level vs controls (HepG2 cells [1]): 0.84
Sphingomyelin (d32:2) level vs controls (HepG2 cells [1]): 0.65
Sphingomyelin (d33:1) level vs controls (HepG2 cells [1]): 0.93
Sphingomyelin (d34:0) level vs controls (HepG2 cells [1]): 1.12
Sphingomyelin (d35:1) level vs controls (HepG2 cells [1]): 0.85
Sphingomyelin (d36:1) level vs controls (HepG2 cells [1]): 0.84
Sphingomyelin (d36:2) level vs controls (HepG2 cells [1]): 0.76
Sphingomyelin (d37:1) level vs controls (HepG2 cells [1]): 0.89
Sphingomyelin (d38:1) level vs controls (HepG2 cells [1]): 0.89
Sphingomyelin (d38:2) level vs controls (HepG2 cells [1]): 0.83
Sphingomyelin (d39:1) level vs controls (HepG2 cells [1]): 1.01
Sphingomyelin (d40:2) level vs controls (HepG2 cells [1]): 0.87
Sphingomyelin (d41:2) level vs controls (HepG2 cells [1]): 0.90
Sphingomyelin (d42:2) level vs controls (HepG2 cells [1]): 0.85
Taurine level vs controls (HepG2 cells [1]): 0.61
Triacylglycerol (C34:1.C18:3) level vs controls (HepG2 cells [1]): 1.73
Triacylglycerol (C34:2.C18:0) level vs controls (HepG2 cells [1]): 2.66
Triacylglycerol (C34:2.C18:1) level vs controls (HepG2 cells [1]): 2.04
Triacylglycerol (C36:4.C16:0) level vs controls (HepG2 cells [1]): 1.86
Triacylglycerol (C36:4.C18:0) level vs controls (HepG2 cells [1]): 2.14
cytotoxicity (CellTox Green) (HepG2 cells [2]): low cytotoxicity
